PubChem BioAssay AID2060912 (Molecular Pharmacology Branch, DTP, NCI, 2025)

System: HUVEC/MSC spheroids viability
Experiment: Human HUVEC/MSC cell line growth inhibition [KRAS2];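 for viability, T/C: percent of DMSO vehicle control luminescence so 100% = untreated viability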
Details: for IC50: curve of first compound; for viability, T/C: stronger effect = lower value
Method in brief: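 Spheroids of pooled-donor HUVEC and hMSC (passage ≤5) without tumour cells were treated with KRAS-pathway inhibitors alone and combined with targeted agents. Top concentration was at or near clinical Cmax, or 10 microM when Cmax was unknown, descending in half-log steps.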

## CC(=O)Nc1cccc(-n2c(=O)n(C3CC3)c(=O)c3c(Nc4ccc(I)cc4F)n(C)c(=O)c(C)c32)c1 + CNCc1ccccc1-c1csc(C(C)Nc2nc(C)nc3cc(OC)c(OC)cc23)c1
Second compound 0.0316 µM
  IC50: 12.5 nM
Second compound 0.1 µM
  IC50: 12.1 nM
Second compound 0.316 µM
  IC50: 13.2 nM
Second compound 1 µM
  IC50: 13.1 nM
Second compound 3.16 µM
  IC50: 13.2 nM
Second compound 10 µM
  IC50: < 0.0949 nM
Second compound 0.0316 µM, first compound 94.9 pM
  viability, T/C: 101%
Second compound 0.0316 µM, first compound 0.0003 µM
  viability, T/C: 130%
Second compound 0.0316 µM, first compound 0.000949 µM
  viability, T/C: 113%
Second compound 0.0316 µM, first compound 0.003 µM
  viability, T/C: 83.6%
Second compound 0.0316 µM, first compound 0.00949 µM
  viability, T/C: 66.7%
Second compound 0.0316 µM, first compound 0.03 µM
  viability, T/C: 9.37%
Second compound 0.1 µM, first compound 94.9 pM
  viability, T/C: 102%
Second compound 0.1 µM, first compound 0.0003 µM
  viability, T/C: 109%
Second compound 0.1 µM, first compound 0.000949 µM
  viability, T/C: 95.5%
Second compound 0.1 µM, first compound 0.003 µM
  viability, T/C: 75.7%
Second compound 0.1 µM, first compound 0.00949 µM
  viability, T/C: 67%
Second compound 0.1 µM, first compound 0.03 µM
  viability, T/C: 9.94%
Second compound 0.316 µM, first compound 94.9 pM
  viability, T/C: 93.6%
Second compound 0.316 µM, first compound 0.0003 µM
  viability, T/C: 99.6%
Second compound 0.316 µM, first compound 0.000949 µM
  viability, T/C: 101%
Second compound 0.316 µM, first compound 0.003 µM
  viability, T/C: 85.9%
Second compound 0.316 µM, first compound 0.00949 µM
  viability, T/C: 65.4%
Second compound 0.316 µM, first compound 0.03 µM
  viability, T/C: 13.4%
Second compound 1 µM, first compound 94.9 pM
  viability, T/C: 86.5%
Second compound 1 µM, first compound 0.0003 µM
  viability, T/C: 103%
Second compound 1 µM, first compound 0.000949 µM
  viability, T/C: 92.2%
Second compound 1 µM, first compound 0.003 µM
  viability, T/C: 84.6%
Second compound 1 µM, first compound 0.00949 µM
  viability, T/C: 67.2%
Second compound 1 µM, first compound 0.03 µM
  viability, T/C: 7.22%
Second compound 3.16 µM, first compound 94.9 pM
  viability, T/C: 84.5%
Second compound 3.16 µM, first compound 0.0003 µM
  viability, T/C: 132%
Second compound 3.16 µM, first compound 0.000949 µM
  viability, T/C: 103%
Second compound 3.16 µM, first compound 0.003 µM
  viability, T/C: 103%
Second compound 3.16 µM, first compound 0.00949 µM
  viability, T/C: 70.2%
Second compound 3.16 µM, first compound 0.03 µM
  viability, T/C: 0.49%
Second compound 10 µM, first compound 94.9 pM
  viability, T/C: 0.38%
Second compound 10 µM, first compound 0.0003 µM
  viability, T/C: 0.41%
Second compound 10 µM, first compound 0.000949 µM
  viability, T/C: 0.37%
Second compound 10 µM, first compound 0.003 µM
  viability, T/C: 0.33%
Second compound 10 µM, first compound 0.00949 µM
  viability, T/C: 0.36%
Second compound 10 µM, first compound 0.03 µM
  viability, T/C: 0.28%

## CN(C)C/C=C/C(=O)Nc1cc2c(Nc3ccc(F)c(Cl)c3)ncnc2cc1O[C@H]1CCOC1 + CC1OCC2(CCN(c3cnc(Sc4ccnc(N)c4Cl)c(N)n3)CC2)C1N
Second compound 0.0316 µM
  IC50: > 100 nM
Second compound 0.1 µM
  IC50: > 100 nM
Second compound 0.316 µM
  IC50: > 100 nM
Second compound 1 µM
  IC50: > 100 nM
Second compound 3.16 µM
  IC50: > 100 nM
Second compound 10 µM
  IC50: > 100 nM
Second compound 0.0316 µM, first compound 0.000316 µM
  viability, T/C: 110%
Second compound 0.0316 µM, first compound 0.001 µM
  viability, T/C: 123%
Second compound 0.0316 µM, first compound 0.00316 µM
  viability, T/C: 121%
Second compound 0.0316 µM, first compound 0.01 µM
  viability, T/C: 103%
Second compound 0.0316 µM, first compound 0.0316 µM
  viability, T/C: 99.1%
Second compound 0.0316 µM, first compound 0.1 µM
  viability, T/C: 117%
Second compound 0.1 µM, first compound 0.000316 µM
  viability, T/C: 108%
Second compound 0.1 µM, first compound 0.001 µM
  viability, T/C: 148%
Second compound 0.1 µM, first compound 0.00316 µM
  viability, T/C: 105%
Second compound 0.1 µM, first compound 0.01 µM
  viability, T/C: 110%
Second compound 0.1 µM, first compound 0.0316 µM
  viability, T/C: 98.7%
Second compound 0.1 µM, first compound 0.1 µM
  viability, T/C: 126%
Second compound 0.316 µM, first compound 0.000316 µM
  viability, T/C: 108%
Second compound 0.316 µM, first compound 0.001 µM
  viability, T/C: 114%
Second compound 0.316 µM, first compound 0.00316 µM
  viability, T/C: 99.4%
Second compound 0.316 µM, first compound 0.01 µM
  viability, T/C: 99.3%
Second compound 0.316 µM, first compound 0.0316 µM
  viability, T/C: 101%
Second compound 0.316 µM, first compound 0.1 µM
  viability, T/C: 126%
Second compound 1 µM, first compound 0.000316 µM
  viability, T/C: 92.6%
Second compound 1 µM, first compound 0.001 µM
  viability, T/C: 118%
Second compound 1 µM, first compound 0.00316 µM
  viability, T/C: 106%
Second compound 1 µM, first compound 0.01 µM
  viability, T/C: 86.8%
Second compound 1 µM, first compound 0.0316 µM
  viability, T/C: 102%
Second compound 1 µM, first compound 0.1 µM
  viability, T/C: 108%
Second compound 3.16 µM, first compound 0.000316 µM
  viability, T/C: 79.7%
Second compound 3.16 µM, first compound 0.001 µM
  viability, T/C: 96.2%
Second compound 3.16 µM, first compound 0.00316 µM
  viability, T/C: 77.9%
Second compound 3.16 µM, first compound 0.01 µM
  viability, T/C: 94.1%
Second compound 3.16 µM, first compound 0.0316 µM
  viability, T/C: 89.2%
Second compound 3.16 µM, first compound 0.1 µM
  viability, T/C: 103%
Second compound 10 µM, first compound 0.000316 µM
  viability, T/C: 71.7%
Second compound 10 µM, first compound 0.001 µM
  viability, T/C: 85.9%
Second compound 10 µM, first compound 0.00316 µM
  viability, T/C: 66.5%
Second compound 10 µM, first compound 0.01 µM
  viability, T/C: 66.3%
Second compound 10 µM, first compound 0.0316 µM
  viability, T/C: 80.9%
Second compound 10 µM, first compound 0.1 µM
  viability, T/C: 89.3%
